A short description of data set [1]: Octanol-water partition coefficient, log D of the compound at pH 7.4. The data set is classed as physicochemical.
Data set [2] is described as follows: Intrinsic clearance in human liver microsomes. The class given is ADME. Conditions: read-out: CLH.
Data set [3] can be described thus: Dissociation constant, pKa of the compound. The data set is classed as physicochemical.
Data set [4] can be described thus: Intrinsic clearance in rat liver microsomes. The class given is ADME. Conditions: read-out: CLH.
The nature of data set [5]: Intrinsic clearance in dog liver microsomes. The data set is classed as ADME, Canis lupus familiaris.
A short description of data set [6]: Intrinsic clearance in human hepatocytes assessed as 10^6 cells. The class given is ADME, cell-based, Hepatocyte. To be noted: read-out: CLH.

Each structure is given as a SMILES string.

For `Nc1nc(Cc2ccccc2)nc2c1CCNCC2`, the pH-dependent lipophilicity (logD) (in general, lipophilicity at a set pH, counting ionised and neutral species) in data set [1] is 0.1.
Same read-out and setting: in the case of `CNc1nc(Cc2ccccc2)nc2c1CCNC[C@H]2C` it was 0.7.
`CNc1nc(Cc2ccccc2)nc2c1CCNC[C@@H]2C`: the microsomal CLint is 16 µL/min/mg in data set [2], 329 µL/min/mg in data set [4] and 114 µL/min/mg in data set [5]. Besides, the logD in data set [1] was 0.7. Also, in data set [3], the pKa (commonly the pH at which an ionisable group is half protonated) came out at 8.6. Also, the hepatocyte CLint in data set [6] amounted to 3.4 µL/min/1e6 cells.

These data come from ChEMBL document CHEMBL3286089, “Multiparameter optimization in CNS drug discovery: design of pyrimido[4,5-d]azepines as potent 5-hydroxytryptamine 2C (5-HT₂C) receptor agonists with exquisite functional selectivity over 5-HT₂A and 5-HT₂B receptors” (J Med Chem, 2014).
